In PubChem BioAssay (NCI) one finds TGI and GI50 data, which are given here for 35 compounds.

Common to all, as to assay: DTP human tumour cell line panel, 48 h
For assay [1], the system named is UACC-257 melanoma.
In assay [2] the test system is SN12C renal.
The test system of assay [3] is OVCAR-8 ovarian.
The test system of assay [4] is SR leukemia.
For assay [5], the system named is IGROV1 ovarian.
Assay [6] relates to CCRF-CEM leukemia.
Assay [7] relates to UO-31 renal.
Assay [8] deals with NCI/ADR-RES ovarian.
Assay [9] concerns HS 578T breast.
The test system of assay [10] is MDA-MB-231 breast.

Broadly, the TGI is the concentration at which net growth stops. A higher TGI goes with lower sensitivity of the cells. By GI50 is commonly meant the concentration at which growth is held to half of that of the control.

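48-hour exposure; five concentrations; linearly interpolated endpoints. The concentration for 50% growth inhibition is given as GI50. The concentration for full growth arrest is given as TGI.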

Regarding `CCCCCCCCCCCCCC(=O)OCC1OC(n2cc(F)c(=O)[nH]c2=O)C(NC(=O)OCc2ccccc2)C(OC(=O)CCCCCCCCCCCCC)C1O` (centres undefined), the total growth inhibition concentration (TGI) in [1], in [2], in assay [3], in assay [4], in assay [5] and in [6] was above 100 µM throughout. In assay [7], this compound came in with a concentration for total growth inhibition (TGI) above 100 µM.
With `CCCCCCCCOCC(O)COC(=O)CCCCCCC` (centres undefined), the total growth inhibition concentration (TGI) is above 100 µM in assay [1]; above 100 µM in assay [2]; above 100 µM in assay [3]; above 100 µM in assay [4]; above 100 µM in assay [5]; 35.7 µM in assay [6]. Further, in [7], the total growth inhibition concentration (TGI) is above 100 µM.
Consider `N#Cc1c2c(c(N=P(c3ccccc3)(c3ccccc3)c3ccccc3)n3c1nc1ccccc13)CCCC2`, for which the TGI in assay [1] was 57.8 µM; in [2], 39.6 µM; in assay [3], above 100 µM; in assay [5] it was above 100 µM; in [6], 57.7 µM; in [7], 79.4 µM.
Turning to `Cc1ccc2ncnc(N(CC(C)C)CC(C)C)c2c1`, the GI50 is 10.4 µM in assay [8]; 17.9 µM in assay [2]; 12.1 µM in [3]; 7.76 µM in assay [4]; 23.4 µM in assay [5]; 17.4 µM in [9]. Further, the GI50 was 6.55 µM in [6] and 22.2 µM in assay [7]. Besides, the TGI was 24.6 µM in assay [8]; 38.7 µM in [2]; 31.9 µM in assay [3]; 26.3 µM in assay [4]; above 100 µM in [5]; 44.3 µM in [9]. The concentration for total growth inhibition (TGI) in [6] is 41.7 µM; in assay [7] it was above 100 µM.
`COc1ccc(C2CC(c3cc(C)ccc3O)=NC(N)=N2)cc1` (centres undefined): the TGI in assay [1], in [2], in assay [3], in assay [4], in assay [5] and in assay [6] was above 100 µM in each case. In assay [7], this compound returned a TGI above 100 µM.
Take `CC(C)(C)OC(=O)NCCc1cccc2c1oc1c(CCC(=O)O)cccc12`: the TGI in assay [1], in [2], in assay [3], in assay [4], in [5] and in assay [6] was above 100 µM in each case. The compound further registered a TGI in [7] above 100 µM.
Turning to `CC(=O)OC1CCCn2c1nc1c2C(=O)C(C)=C(N2CC2)C1=O` (centres undefined), the total growth inhibition concentration (TGI) in [1] was 0.587 µM; in assay [2] it was 1.5 µM; in assay [3], 1.37 µM; in [4], above 100 µM; in assay [5] it was 3.35 µM; in assay [6] it was 59 µM. The compound also displayed a concentration for total growth inhibition (TGI) in assay [7] of 5.07 µM.
`CC(/C(=N\Nc1ccccc1)c1ccc(O)cc1)C1C(=O)Oc2ccccc21` (centres undefined): the TGI in assay [1], in [2], in assay [3], in assay [4], in [5] and in assay [6] was above 100 µM each time. In addition, in [7], the concentration for total growth inhibition (TGI) is above 100 µM.
For `CC1SC2=NC3=C(c4ccccc4C3=O)C(c3ccc(Cl)cc3)N2C1=O` (centres undefined), the total growth inhibition concentration (TGI) in assay [1], in [2], in assay [3], in assay [5], in assay [6] and in assay [7] was above 100 µM in each case.
With `COC(=O)C(C(=O)C(=O)Nc1nc(=S)[nH][nH]1)c1csc(-n2nc(-c3ccccc3)cc2-c2ccccc2)n1` (centres undefined), the total growth inhibition concentration (TGI) in assay [1], in assay [2], in assay [3], in assay [4], in assay [5] and in assay [6] was above 100 µM each time. In assay [7], this compound returned a TGI above 100 µM.
As for `NS(=O)(=O)c1ccc(NC2=CC(=O)C(=O)c3ccccc32)cc1`, the concentration for total growth inhibition (TGI) in [1], in [2], in assay [3], in assay [4], in assay [5] and in assay [6] was above 100 µM each time. This compound gave a TGI in [7] above 100 µM.
For `CC(=O)Nc1cc(N(CCOS(C)(=O)=O)CCOS(C)(=O)=O)ccc1N=O`, the TGI in assay [1], in assay [3], in assay [4], in assay [5], in assay [6] and in assay [7] was above 100 µM each time.
Take `CO[C@@H]1C=C[C@@]23c4cc5c(cc4C(=O)O[C@H]2CN(C)[C@H]3C1)OCO5`: the concentration for total growth inhibition (TGI) in [1], in assay [2], in [3], in [4], in [5] and in assay [6] was above 100 µM in each case. The same compound showed a concentration for total growth inhibition (TGI) in assay [7] above 100 µM.
Consider `COC(=O)C(CC(C)C)NC(=O)NC12CC3CC(CC(F)(C3)C1)C2` (centres undefined), for which the TGI in [1], in assay [3], in assay [5], in assay [6] and in assay [7] was above 100 µM each time.
Regarding `Cc1cc2c(cc1C)[n+](=O)c(C(=O)C/C(=N/OCCCc1ccccc1)C(=O)Nc1cc(Cl)ccc1Cl)c(C)n2[O-]`, the TGI in [1], in assay [2], in assay [3], in assay [5] and in assay [6] was above 100 µM each time.
Regarding `CC[P+](C)(C)c1ccccc1`, the TGI in assay [1], in assay [2], in [3], in assay [5], in [6] and in assay [7] was above 100 µM throughout.
`CC(=O)c1ccc(OCC(O)CO)cc1` (centres undefined): the total growth inhibition concentration (TGI) in assay [1], in assay [2], in assay [3], in [5], in [6] and in [7] was above 100 µM each time.
Regarding `CC(=O)NC1=C(NCCN(C)C)C(=O)c2ccccc2C1=O`, the TGI in assay [1] was 16.8 µM; in [2], 27.8 µM; in assay [3] it was 31.6 µM; in assay [4], above 50 µM; in [5] it was above 50 µM; in [6], above 50 µM. Moreover, the TGI in assay [7] was above 50 µM.
Regarding `COc1c(C(=O)c2ccc([N+](=O)[O-])cc2)cc(C(C)(C)C)cc1C(C)(C)C`, the TGI in assay [1] is 59.3 µM; in assay [2], above 100 µM; in assay [3] it was above 100 µM; in [4], 64.1 µM; in [5], above 100 µM; in [6], 97.5 µM. The compound further displayed a TGI in assay [7] above 100 µM.
As for `COC(=O)C(Cc1cc(OC)c(OC)c(OC)c1)c1ccc(OC)cc1` (centres undefined), the TGI in [1], in assay [2], in assay [3], in assay [5], in [6] and in assay [7] was above 100 µM each time.
In the case of `OCC(O)C(O)C(O)c1nn(-c2ccc(Cl)cc2)c2nc3cc(Cl)c(Cl)cc3nc12` (centres undefined), the total growth inhibition concentration (TGI) in [1], in [2], in assay [3], in assay [4], in assay [5] and in assay [6] was above 100 µM in each case. Also, in [7], the TGI is above 100 µM.
In the case of `CCc1c(Cc2[nH]c(Cc3[nH]c(C=O)c(C)c3CC)c(CC)c2CC)[nH]c(C=O)c1C`, the concentration for total growth inhibition (TGI) in assay [1] was above 1 µM; in [2] it was above 100 µM; in [3], above 100 µM; in assay [4], above 100 µM; in [6], above 100 µM; in assay [7], above 100 µM.
On to `Cc1ccc(NC(=O)C(=O)C(C#N)c2nc(-c3ccc(-c4ccccc4)cc3)cs2)c(C)c1` (centres undefined), for which the concentration for total growth inhibition (TGI) in assay [1], in assay [2], in [3], in [4], in assay [5] and in [7] was above 100 µM each time.
In the case of `NNC(=O)CNC(=O)c1ccc(Cl)cc1Cl`, the total growth inhibition concentration (TGI) in assay [1], in assay [2], in assay [3], in assay [5], in [6] and in [7] was above 100 µM each time.
Take `CCN1C(=O)N(CC)C2Nn3c(s/c(=C\c4ccccc4Br)c3=O)=NC21` (centres undefined): the GI50 is 12.9 µM in [1]; 1.74 µM in [8]; 3.17 µM in [2]; 1.89 µM in [10]; 1.61 µM in assay [3]; 0.573 µM in [4]. Moreover, the GI50 in assay [5] was 2.77 µM; in assay [6], 1.32 µM; in assay [7] it was 2 µM. Besides, the TGI in assay [1] is above 100 µM; in assay [8], 43.7 µM; in [2], 27.8 µM; in [10], 8.62 µM; in assay [3], 7.85 µM; in assay [4] it was 8.3 µM. Also, the TGI in [5], in assay [6] and in assay [7] was above 100 µM each time.
As to `CC1C[C@H](C)CC(C(O)CC2CC(=O)N(Cc3ccccc3)C(=O)C2)C1O` (some centres undefined), the TGI in assay [1], in [2], in [3], in assay [4], in assay [5] and in [6] was above 100 µM in each case. In [7], this compound showed a total growth inhibition concentration (TGI) above 100 µM.
For `COC(=O)/C=C(\C(=O)OC)c1c2c3c(cc(OC)c(OC)c3c3ccccc13)CCN2C`, the total growth inhibition concentration (TGI) was 89.7 µM in [1]; above 100 µM in assay [2]; above 100 µM in assay [3]; above 100 µM in [4]; 99.4 µM in assay [5]; 85.4 µM in assay [6]. The compound also had a TGI in [7] above 100 µM.
`COC(=O)/C(=N\Nc1nc(=S)[nH]n1N)C(C#N)c1ccccc1` (centres undefined): the total growth inhibition concentration (TGI) in [1], in assay [2], in assay [3], in assay [5], in assay [6] and in assay [7] was above 100 µM each time.
Regarding `O=C1c2ccccc2C(=O)N1CCN(CCN1C(=O)c2ccccc2C1=O)Cn1cccn1`, the total growth inhibition concentration (TGI) in assay [1], in assay [2], in [3], in assay [6] and in [7] was above 100 µM in each case.
Consider `O=C(c1ccccc1)N1C2CCC1C(C(F)(F)F)=C2C(F)(F)F`, for which the total growth inhibition concentration (TGI) in assay [1], in assay [2], in assay [3], in assay [4], in [5] and in assay [6] was above 100 µM in each case. The same compound returned a TGI in [7] above 100 µM.
`CC1=NOC(=O)/C1=C/c1cccc2ccccc12`: the TGI in assay [1], in assay [2], in [3], in [4], in [5] and in assay [6] was above 100 µM each time. The TGI in assay [7] is above 100 µM.
For `O=C(O)C[C@H]1CCCCC12CCOC2=O` (some centres undefined), the TGI in [1], in [2], in [3], in [4], in assay [5] and in assay [6] was above 100 µM throughout. In [7], this compound showed a TGI above 100 µM.
`O=C1CCC2CC(C(=O)c3ccccc3)CCC2CN1` (centres undefined) (tested in a mixture with another compound): the concentration for total growth inhibition (TGI) in assay [1], in assay [2], in assay [3], in [4], in assay [5] and in [6] was above 100 µM each time. The compound also registered a concentration for total growth inhibition (TGI) in [7] above 100 µM.
For the compound `Cc1cccc2c1N(C(=O)/C=C\C(=O)O)C(c1c(C)[nH]c3ccccc13)C2` (centres undefined), the TGI in [1] was above 100 µM; in assay [2] it was above 100 µM; in [3], above 100 µM; in assay [4] it was above 100 µM; in [5], above 10 µM; in assay [6], 78.2 µM. In assay [7], this compound yielded a TGI above 100 µM.
For `CCOC(=O)C1C2CCC(C2)C1(CCl)C(=O)OCC` (centres undefined), the TGI in assay [1], in assay [2], in assay [3], in [4], in [5] and in assay [6] was above 100 µM in each case. The same compound gave a total growth inhibition concentration (TGI) in assay [7] above 100 µM.
